Like-named read-outs stand apart in the source and are kept apart here. Marks after values point to notes of the source that are not given here.
Key:
[1] = Cloud point of 10% aqueous solutions; assay type: physicochemical; conditions: 10% aqueous solution
From the text: The higher the cloud point, the more soluble, i.e. hydrated, the surfactant.

[2] = pH of product, 10% in 50/50 isopropyl alcohol-water; assay type: physicochemical
From the text: Into a stainless steel autoclave was introduced n-octylamine (2342 g) and butyrolactone (1704 g) in a mole ratio of about 1:1.1.

[3] = Titration of 10% dispersions with HCl to a clear solution (protonation); assay type: physicochemical; conditions: clear solution after HCl titration
From the text: Ten percent dispersions of the C₈ and C₁₀ pyrrolidones were titrated to a clear solution using HCl.
To obtain a rough figure for the protonation equilibrium constant, the equilibrium [octyl pyrrolidone] was taken at 5 x 10⁻³m.

[4] = Surface tension of aqueous solutions (Fisher Surface Tensiomat, ring tensiometer); assay type: physicochemical; conditions: 25°C.
Protocol: Surface tension measurements in triplicate were made for each of the N-alkylpyrrolidone species listed below in Table 1, using a Fisher Surface Tensiomat (Model #21, Der Nouy Ring Tensionometer). Each experiment was carried out as follows.
Distilled water solutions at concentrations noted in Table 1 were prepared for each of the following surfactants in 100 ml glass flasks. The solutions were stirred for about 15 minutes until homogeneous solutions were obtained. The surface tensions of these solutions were then measured.

[5] = Surface activity parameters calculated from surface tension measurements (Gibbs adsorption equation); assay type: physicochemical; conditions: for am: area of the molecule at the interface; for CMC: critical micelle concentration, calculated from surface tension data; for pC-20: negative logarithm of surfactant concentration required to lower surface tension by 20 dynes/cm
Protocol: The critical micelle concentration (CMC), the surface concentration at the liquid-air interface ( ? ), the area of the test molecule at the interface (am) and the effectiveness of adsorption at the interface (pC-20) were determined on the above surface tension data reported in Example XXI, Table 1.
More specifically, the CMC of the N-(n alkyl) pyrrolidones tested show a minimum (4.7 x 10⁻⁵) at the C₁₂ chain length. Using the empirical equation for n-lauryl (C₁₂) alcohol ethoxylate, log CCMC (= A)^1 (+ B)^1 n [formula] where A¹ = 4.4, B¹ = 0.046, and n = number of ethylene oxide at 23°C., the pyrrolidone ring would be expected to behave as 2 ethylene oxide units. […] The hydrophilic-lipophilic balance (HLB) of N-n-dodecyl pyrrolidone, based on the assumption that the pyrrolidone ring simulates 2-6 ethylene oxide units is 6.5 - 11 using the equation % ethylene oxide/5 - HLB.
The surface concentration ? , in moles per cm indicates the maximum surface concentration of surfactant, i.e. at equilibrium above the CMC, and is obtained by an estimation of a constant d γ /dc* from the surface tension vs. concentration. […] The mono disperse nature of the hydrophobe and hydrophile is believed to contribute to high surface concentrations by maximizing enthropy of packing. * d γ/dc = the change in surface tension with respect to the change in surfactant concentration.

[6] = Solubility of N-alkyl pyrrolidones, 10% by weight in various liquids; assay type: physicochemical; design: key to 10% PRODUCT SOLUBILITY: I: insoluble; PS: partially soluble (cloudy translucent); S: soluble, clear; *: Soluble with slight haze; **: Very slight precipitation; conditions: for 10% PRODUCT SOLUBILITY: 25°C ± 1°C; for solubility in water: room temperature, 10% concentration, in words
Protocol: Separate 10% by weight solutions of N-alkyl-2-pyrrolidone in the following liquids were made up in 50 ml glass beakers and the solubilities at about 25°C. were noted and reported in following Table 9.

[7] = Viscosity (Brookfield Viscometer, LVT Model); assay type: physicochemical
Protocol: The viscosities in cps of the following surfactants at various concentration in distilled water were measured at about 25°C. using a Brookfield Viscometer (LVT Model).
The above viscosity of alkyl pyrrolidones and their aqueous solutions were obtained usinq a #2 spindle at a speed of 30 rpm, and a #2 spindle at a speed of 60 rpm respectively.

[8] = Density, heat of vaporization and solubility parameter; assay type: physicochemical
[9] = value starred: literature value; cited from earlier work
[10] = 0.001% solution in distilled water
[11] = 0.01% solution in distilled water
[12] = 0.1% solution in distilled water
[13] = 100%, about 25°C., #2 spindle 30 rpm
[14] = product as such, stated in description and preparation examples
[15] = 0.0001% solution in distilled water
[16] = 2% in distilled water, about 25°C., #2 spindle 60 rpm
[17] = 4% in distilled water, about 25°C., #2 spindle 60 rpm
[18] = 6% in distilled water, about 25°C., #2 spindle 60 rpm
[19] = 8% in distilled water, about 25°C., #2 spindle 60 rpm
[20] = 10% in distilled water, about 25°C., #2 spindle 60 rpm

Row | Structure (SMILES) | Cloud Point [1] | pH [2] | Surface Tension of Aqueous Solutions [4, 10] [dynes/cm] | Surface Tension of Aqueous Solutions [4, 11] [dynes/cm] | Surface Tension of Aqueous Solutions [4, 12] [dynes/cm] | am [5] | CMC [5] [µM] | pC-20 [5] | 10% PRODUCT SOLUBILITY ([6]; Acetone) | 10% PRODUCT SOLUBILITY ([6]; Ethanol) | 10% PRODUCT SOLUBILITY ([6]; Heptane) | 10% PRODUCT SOLUBILITY ([6]; Paraffin Oil) | 10% PRODUCT SOLUBILITY ([6]; Perchloroethylene) | 10% PRODUCT SOLUBILITY ([6]; Stoddard Solvent) | 10% PRODUCT SOLUBILITY ([6]; Water) | 10% PRODUCT SOLUBILITY ([6]; Xylene) | solubility in water [6] | VISCOSITY [7, 13] [CPS] | VISCOSITY [7, 14] [cps] | also measured
1 | O=C1CCCN1C1CCCCC1 [N-cyclohexyl pyrrolidone, reference compound] | 55 °C | – | – | – | – | – | – | – | – | – | – | – | – | – | – | – | – | – | – | –
2 | CCCCCCCCCCN1CCCC1=O [N-decyl-2-pyrrolidone] | 19 °C | 5.4 | 51.0 | 27.8 | 27.5 | 36.1 (Å)^2 | 440 | 4.51 | S | S | S | S | S | S | PS* | S | slightly soluble | 12.0 | 12 | Solution pH [3]: <0.1; Surface Tension of Aqueous Solutions ([4]; 1.0% solution in distilled water): 27.6 dynes/cm
3 | CCCCCCCCCCCCN1CCCC1=O [N-dodecyl-2-pyrrolidone] | 15-19 °C | 7.3 | 29.9 | 27.6 | 26.7 | 36.9 (Å)^2 | 47 | 5.27 | S | S | S | PS | S | PS | S* | S | completely soluble | 17.0 | 17 | Cloud Point ([1]; listed as dodecyl): 15-19 °C; Cloud Point ([1]; listed as dodecyl pyrrolidone): 31-32 °C; Surface Tension of Aqueous Solutions [4, 15]: 55.4 dynes/cm; VISCOSITY [7, 16]: 6.5 CPS; VISCOSITY [7, 17]: 7.5 CPS; VISCOSITY [7, 18]: 12.5 CPS; VISCOSITY [7, 19]: 16.0 CPS; VISCOSITY [7, 20]: 20.0 CPS
4 | CCCCCCCCN1CCCC1=O [N-octyl-2-pyrrolidone] | < 0 °C | 6.5 | 68.4 | 54.25 | 30.4 | 39.5 (Å)^2 | – | 3.20 | S | S | S | S | S | S** | I | S | insoluble | 8.0 | 8 | Solution pH [3]: 0.22
5 | CCCCCCCCCCCCCCN1CCCC1=O [N-tetradecyl-2-pyrrolidone] | 33 °C | 5.9 | 30.4 | 26.5 | 26.4 | 53.6 (Å)^2 | 57 | 6.25 | S | S | S | S | S | S | S* | S | completely soluble | 20.0 | 2 | Cloud Point ([1]; listed as tetradecyl): 33 °C; Cloud Point ([1]; listed as tetradecyl pyrrolidone): 33-34 °C; Surface Tension of Aqueous Solutions [4, 15]: 47.5 dynes/cm; Γm ([5]; surface concentration at the liquid-air interface): 3.1 10^-10 mol/cm²; Heat of Vaporizn. [8]: 19.7 k cal/mole; Solubility Parameter (δ) [8]: 7.8; VISCOSITY [7, 16]: 24.5 CPS; VISCOSITY [7, 17]: 66.0 CPS; VISCOSITY [7, 18]: 96.0 CPS; VISCOSITY [7, 19]: 100.0 CPS; VISCOSITY [7, 20]: 145.0 CPS
6 | CCCCCCCCCCCCCCCCN1CCCC1=O [hexadecyl, N-hexadecyl-2-pyrrolidone] | insoluble | – | – | – | – | – | – | – | – | – | – | – | – | – | – | – | – | – | – | –
7 | CCCCCCCCCCCC[N+](C)(C)[O-] [lauryl dimethyl amine oxide, reference compound] | – | – | – | – | – | 59.3 (Å)^2 | – | 5.23 | – | – | – | – | – | – | – | – | – | – | – | CMC [9]: 2.1 x 10^-3* ml^-1

Source: patent EP0311632B1, “SURFACE ACTIVE LACTAMS” (priority 1986, dated 1988)
